Source: patent US20110046108A1, “PYRIMIDINE DERIVATIVES” (AstraZeneca AB, priority 2006, published 2011)
Read-outs that look alike come from different tables or passages of the source.

How the values were obtained:
EphB4 = target: T1, EphB4 (Homo sapiens, UniProt P54760); experiment: In vitro EphB4 cell assay (Assay B, EphB4 phosphorylation ELISA in EphB4-CHO cells); type: cell-based
T1 construct: to generate full-length EphB4 containing a Myc-His tag at the C-terminus; expressed in transfected cells; host or cells: CHO-K1 (EphB4-CHO)
T1 sequence (P54760 16-987): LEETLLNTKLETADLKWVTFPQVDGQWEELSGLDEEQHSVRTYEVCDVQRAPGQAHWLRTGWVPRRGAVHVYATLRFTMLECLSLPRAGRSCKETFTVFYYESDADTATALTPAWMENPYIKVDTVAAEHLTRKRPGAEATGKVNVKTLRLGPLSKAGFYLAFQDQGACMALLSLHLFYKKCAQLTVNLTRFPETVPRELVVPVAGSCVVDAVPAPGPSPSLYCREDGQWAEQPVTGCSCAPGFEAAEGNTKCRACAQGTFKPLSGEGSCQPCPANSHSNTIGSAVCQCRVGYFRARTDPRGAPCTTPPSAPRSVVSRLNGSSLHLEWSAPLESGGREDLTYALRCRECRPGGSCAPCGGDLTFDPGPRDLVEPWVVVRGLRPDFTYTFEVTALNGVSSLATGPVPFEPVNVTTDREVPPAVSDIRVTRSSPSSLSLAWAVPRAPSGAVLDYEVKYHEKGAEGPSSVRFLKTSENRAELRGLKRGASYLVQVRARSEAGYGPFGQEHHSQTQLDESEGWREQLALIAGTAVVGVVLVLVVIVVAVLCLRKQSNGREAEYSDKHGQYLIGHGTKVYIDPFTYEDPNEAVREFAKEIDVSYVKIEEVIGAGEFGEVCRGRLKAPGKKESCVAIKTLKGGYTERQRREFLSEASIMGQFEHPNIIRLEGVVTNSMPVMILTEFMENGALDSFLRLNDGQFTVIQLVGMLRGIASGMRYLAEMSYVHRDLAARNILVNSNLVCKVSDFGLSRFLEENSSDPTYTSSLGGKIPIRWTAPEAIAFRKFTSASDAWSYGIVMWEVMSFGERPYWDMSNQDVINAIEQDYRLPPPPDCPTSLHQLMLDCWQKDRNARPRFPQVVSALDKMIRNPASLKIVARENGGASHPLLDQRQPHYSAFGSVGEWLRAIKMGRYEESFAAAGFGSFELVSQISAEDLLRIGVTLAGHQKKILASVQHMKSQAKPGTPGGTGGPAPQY

recombinant EphB4 = target: T2, recombinant EphB4 (Homo sapiens, UniProt P54760); experiment: In vitro EphB4 enzyme assay (Assay A, Alphascreen); type: biochemical; details: 4 μM ATP
T2 construct: recombinant active EphB4 (amino acids 563-987; Swiss-Prot Acc; No. P54760); purchased ProQinase GmbH 0178-0000-3
T2 sequence (P54760 563-987): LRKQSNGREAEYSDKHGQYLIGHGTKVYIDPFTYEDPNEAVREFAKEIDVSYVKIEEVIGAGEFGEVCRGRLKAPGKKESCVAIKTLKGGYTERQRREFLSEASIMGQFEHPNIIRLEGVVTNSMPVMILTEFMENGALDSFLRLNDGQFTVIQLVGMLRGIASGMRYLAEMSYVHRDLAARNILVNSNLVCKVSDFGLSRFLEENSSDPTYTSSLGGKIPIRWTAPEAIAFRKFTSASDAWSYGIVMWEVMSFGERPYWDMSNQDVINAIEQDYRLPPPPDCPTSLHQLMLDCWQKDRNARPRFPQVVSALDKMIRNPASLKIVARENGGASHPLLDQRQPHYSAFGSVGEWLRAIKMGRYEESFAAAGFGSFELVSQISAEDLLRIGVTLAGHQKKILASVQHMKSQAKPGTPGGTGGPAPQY
Method: This assay detects inhibitors of EphB4-mediated phosphorylation of a polypeptide substrate using Alphascreen™ luminescence detection technology. Briefly, recombinant EphB4 was incubated with a biotinylated-polypeptide substrate (biotin-poly-GAT) in presence of magnesium-ATP. The reaction was stopped by addition of EDTA, together with streptavidin-coated donor beads which bind the biotin-substrate containing any phosphorylated tyrosine residues. Anti-phosphotyrosine antibodies present on acceptor beads bind to phosphorylated substrate, thus bringing the donor & acceptor beads into close proximity. Subsequent excitation of the donor beads at 680 nm generated singlet oxygen species that interact with a chemiluminescer on the acceptor beads, leading to light emission at 520-620 nm. The signal intensity is directly proportional to the level of substrate phosphorylation and thus inhibition is measured by a decrease in signal.
Test compounds were prepared as 10 mM stock solutions in DMSO (Sigma-Aldrich Company Ltd, Gillingham, Dorset SP8 4XT Catalogue No.154938) and serially diluted with 5% DMSO to give a range of test concentrations at 6× the required final concentration. […]
The resulting assay signal was determined on the Perkin Elmer EnVision plate reader. […]

c-Src kinase = target: T3, c-Src kinase (Homo sapiens, UniProt P12931); experiment: Src in vitro enzyme assay (Assay C, ELISA); type: biochemical; details: 2.2 μM ATP
T3 construct: purchased Upstate 14-117
T3 sequence (P12931 whole entry): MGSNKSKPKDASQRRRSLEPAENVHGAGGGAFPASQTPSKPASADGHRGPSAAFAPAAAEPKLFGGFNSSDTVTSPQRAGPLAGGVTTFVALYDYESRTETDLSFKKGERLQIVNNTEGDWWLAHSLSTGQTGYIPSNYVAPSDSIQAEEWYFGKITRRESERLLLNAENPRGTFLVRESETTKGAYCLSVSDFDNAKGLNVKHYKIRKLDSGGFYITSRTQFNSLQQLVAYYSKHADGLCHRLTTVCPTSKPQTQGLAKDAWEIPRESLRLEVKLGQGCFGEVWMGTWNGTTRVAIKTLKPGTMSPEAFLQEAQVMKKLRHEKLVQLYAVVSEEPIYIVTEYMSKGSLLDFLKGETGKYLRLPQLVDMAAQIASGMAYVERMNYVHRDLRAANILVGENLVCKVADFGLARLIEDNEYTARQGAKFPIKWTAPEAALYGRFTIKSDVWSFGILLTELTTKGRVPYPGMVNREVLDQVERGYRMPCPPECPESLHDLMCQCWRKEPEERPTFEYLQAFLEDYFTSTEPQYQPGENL
Method: The ability of test compounds to inhibit the phosphorylation of a tyrosine containing polypeptide substrate by the enzyme c-Src kinase was assessed using a conventional ELISA assay with a colorimetric endpoint.
Each well of Matrix 384-well plates (Matrix, Brooke Park, Wilmslow, Cheshire, SK9 3LP, UK, Catalogue No. 4311) were coated overnight at 4° C. with 40 μl of 10 ug/ml stock of synthetic polyamino acid pEAY substrate (Sigma-Aldrich Company Ltd, Gillingham, Dorset, SP8 4XT, UK, Catalogue No. P3899) in phosphate buffered saline (PBS). Immediately prior to the assay, the plates were washed with 100 μl/well of PBS containing Tween-20 and then with 50 mM HEPES pH7.4.
Test compounds were prepared as 10 mM stock solutions in DMSO (Sigma-Aldrich Company Ltd, Gillingham, Dorset, SP8 4XT, UK, Catalogue No.154938) and serially diluted with 10% DMSO to give a range of test concentrations at 4× the required final concentration. […]
The plates were washed three times with 100 μl/well of PBS-Tween20 and then 40 μl of a PBS-Tween20 and 0.5% BSA solution containing 4G10-HRP anti-phosphotyrosine antibody (Upstate, Catalogue No 16-105) added to each well. […] The reaction was then stopped with the addition of 20 μl/well 2M sulphuric acid and the absorbances determined at 450 nm using a plate reading spectrophotometer. […]

[1] = mean values, Table A, read-out: Mean IC50 (μM) obtained using Assay B

Row | Compound | IC50 (EphB4; [1]) [µM] | further results
1 | Clc1ccc2c(c1Nc1ccnc(Nc3ccc4ncsc4c3)n1)OCO2 [Compound 59, N~2~-1,3-benzothiazol-6-yl-N~4~-(5-chloro-1,3-benzodioxol-4-yl)pyrimidine-2,4-diamine] |  | IC50 (EphB4; ephrin-B2 stimulated EphB4 phosphorylation, read-out: IC50 in assay B): 1.25 µM; IC50 (recombinant EphB4): 460 nM; IC50 (c-Src kinase): 330 nM
2 | CN(c1ccnc(Nc2cccc(NS(C)(=O)=O)c2)n1)c1c(Cl)ccc2c1OCO2 [Compound 219, N-[3-[[4-[(5-chlorobenzo [1,3]dioxol-4-yl)-methyl-amino]pyrimidin-2-yl]amino]phenyl]methane sulfonamide] | 0.14 | 
3 | CS(=O)(=O)Nc1cccc(Nc2nccc(N(CC#N)c3c(Cl)ccc4c3OCO4)n2)c1 [Compound 227] | 0.19 | 
4 | N#Cc1cccc(Nc2nccc(N(CCO)c3c(Cl)ccc4c3OCO4)n2)c1 [Compound 241, 3-[[4-[(5-chlorobenzo [1,3]dioxol-4-yl)-(2-hydroxyethyl)amino]pyrimidin-2-yl]amino] benzonitrile] | 0.13 | 
5 | COc1cc(Nc2nccc(Nc3cccc4c3OCO4)n2)cc(OC)c1 [Compound 258, N′-benzo[1,3]dioxol-4-yl-N-(3,5-dimethoxyphenyl) pyrimidine-2,4-diamine] | 1.08 | 
6 | CC(=O)Nc1cc(Nc2nccc(Nc3cccc4[nH]ncc34)n2)ccc1C [Compound 293, N-[5-[[4-(1H-indazol-4-ylamino)pyrimidin-2-yl]amino]-2-methyl-phcnyl] acetamide] | 0.23 | 
